PMC166128 (BMC Infectious Diseases, 2003)
Like-named read-outs stand apart in the source and are kept apart here.

Legend:
[1] = system: VV, VSV, HSV-1, HSV-2, Coxsackie virus B4 and poliovirus-1; settings: cited from earlier work
vaccinia virus = format: cell-based
HeLa S3 cells = assay: Cell proliferation assay, 3H-thymidine uptake; settings: 2 days + 16 h, single experiment
CV-1 cells = assay: Cytostatic activity; settings: CV-1 cells seeded at 3.5 × 10^3 cells/well; 24 h incubation; cells counted
[2] = system: vaccinia virus Western Reserve (WR) strain; format: cell-based
vaccinia virus WR strain [3] = format: cell-based
vaccinia virus WR strain [4] = format: cell-based; settings: 16 h
[5] = system: vaccinia virus IHD-J (EEV); format: cell-based
monkeypox = settings: read-out: EC50 (monkeypox); cited from earlier work
camelpox = settings: read-out: EC50 (camelpox); cited from earlier work
cowpox = settings: read-out: EC50 (cowpox); cited from earlier work
vaccinia = settings: read-out: EC50 (vaccinia); cited from earlier work
[6] = system: vaccinia virus International Health Department-J (IHD-J) strain; format: cell-based

Compound	% inhibition (vaccinia virus; 25 µg/mL) [%]	titer (vaccinia virus; 25 µg/mL)	% inhibition (vaccinia virus; 50 µg/mL) [%]	titer (vaccinia virus; 50 µg/mL)	CC50 Cell proliferation (HeLa S3 cells) [µg/mL]	CC50 Cytostatic activity (CV-1 cells) [µg/mL]	% inhibition (vaccinia virus WR strain [3]; 25 µg/mL) [%]	titer (vaccinia virus WR strain [3]; 25 µg/mL)	% inhibition (vaccinia virus WR strain [3]; 50 µg/mL) [%]	titer (vaccinia virus WR strain [3]; 50 µg/mL)	% inhibition (vaccinia virus WR strain [4]; 25 µg/mL) [%]	titer (vaccinia virus WR strain [4]; 25 µg/mL)	% inhibition (vaccinia virus WR strain [4]; 50 µg/mL) [%]	titer (vaccinia virus WR strain [4]; 50 µg/mL)	EC50 IHD-J (EEV) CV-1 [5] [µg/mL]	further results
O=C(O)c1ccc(-c2c3nc(c(-c4ccc(C(=O)O)cc4)c4ccc([nH]4)c(-c4ccc(C(=O)O)cc4)c4nc(c(-c5ccc(C(=O)O)cc5)c5ccc2[nH]5)C=C4)C=C3)cc1 [TPPC, meso-tetra(4-carboxyphenyl)porphyrin]	–	–	–	–	–	–	–	–	–	–	–	–	–	–	–	EC50s for VV, VSV, HSV-1, HSV-2, Coxsackie virus B4 and poliovirus-1 [1]: ≥ 20 µg/mL
C=CC1=C(C)c2cc3[n-]c(cc4nc(cc5[n-]c(cc1n2)c(C)c5C=C)C(C)=C4CCC(=O)O)c(CCC(=O)O)c3C.[Zn+2] [ZnPPIX, zinc protoporphyrin]	92 ± 1	2.1 × 10^4 pfu/mL	99 ± 7	3.2 × 10^3 pfu/mL	25	370	98	2.5 × 10^5 pfu/mL	99	1.0 × 10^5 pfu/mL	65 ± 0.3	7.2 × 10^5 pfu/mL	70 ± 4	6.4 × 10^5 pfu/mL	38 ± 7.8	EC50 WR CV-1 [2]: 15 ± 12 µg/mL
Nc1ccn(C[C@@H](CO)OCP(=O)(O)O)c(=O)n1 [cidofovir]	–	–	–	–	–	–	–	–	–	–	–	–	–	–	–	EC50 (monkeypox): 27 µM; EC50 (camelpox): 2.3 µM; EC50 (cowpox): 58 µM; EC50 (vaccinia): 46.2 µM
Fe meso-tetrakis(3,4-disulfonatomesityl)porphyrin [FeTMPS]	–	–	–	–	–	–	–	–	–	–	–	–	–	–	–	EC50s for VV, VSV, HSV-1, HSV-2, Coxsackie virus B4 and poliovirus-1 [1]: ≥ 20 µg/mL
copper hematoporphyrin [CuHPIX]	80 ± 2	5.0 × 10^4 pfu/mL	91 ± 2	2.3 × 10^4 pfu/mL	36	–	93	1.1 × 10^6 pfu/mL	97	4.5 × 10^5 pfu/mL	33 ± 9	1.3 × 10^6 pfu/mL	71 ± 4	6.3 × 10^5 pfu/mL	1.1 ± 0.4	EC50 WR BSC-40 [2]: 0.03 ± 0.01 µg/mL; EC50 WR CV-1 [2]: 7.8 ± 0.9 µg/mL; EC50 IHD-J CV-1 [6]: 1.5 ± 0.4 µg/mL; EC50 IHD-J (EEV) BSC-40 [5]: 0.32 ± 0.13 µg/mL
sulfonated 5,10,15,20-tetra-naphthalen-1-yl-porphyrin [TNapPS]	87 ± 5	3.3 × 10^4 pfu/mL	95 ± 2	1.3 × 10^4 pfu/mL	–	400	98	3.5 × 10^5 pfu/mL	98	2.6 × 10^5 pfu/mL	73 ± 16	3.5 × 10^5 pfu/mL	92 ± 1	1.0 × 10^5 pfu/mL	1.0 ± 0.1	–
sulfonated copper phthalocyanine [CuPcS(3444)]	92 ± 3	2.1 × 10^4 pfu/mL	90 ± 2	2.4 × 10^4 pfu/mL	> 500	> 1000	60	6.3 × 10^6 pfu/mL	74	4.1 × 10^6 pfu/mL	49 ± 21	9.3 × 10^5 pfu/mL	59 ± 2	8.3 × 10^5 pfu/mL	8.2 ± 1.3	EC50 IHD-J CV-1 [6]: 14 ± 5.3 µg/mL; EC50 IHD-J (EEV) BSC-40 [5]: 50 ± 7 µg/mL
